Consider eleven compounds from patent US6281194A, “Cycloalkyl inhibitors of protein farnesyltransferase” (Warner-Lambert Company, priority 1999, dated 2001).

The target in test [1] is T1, SF9 affinity purified rat farnesyl protein transferase (Rattus norvegicus, UniProt Q02293+Q04631).
T1 construct: made in house; host or cells: Sf9 insect cells (baculovirus system, inferred from b7)
Nature of the test: PFT inhibitory activity. The format is biochemical. On the procedure:
The protein:farnesyltransferase (PFT) or farnesyl protein transferase (FPT) inhibitory activity of compounds of the present invention were assayed in HEPES buffer (pH 7.4) containing 5 mM potassium phosphate and 20 μM ZnCl2. The solution also contained 5 mM DTT (dithiothreitol), 5 mM MgCl2 and 0.1% PEG 8000. Assays were performed in 96 well plates (Wallec) and employed solutions composed of varying concentrations of a compound of the present invention in 100% DMSO (dimethylsulfoxide). Upon addition of both substrates, radiolabeled farnesyl pyrophosphate ([1-^3 H], specific activity 15-30 Ci/mmol, final concentration 134 nM) and (biotinyl)-Ahe-Thr-Lys-Cys-Val-Ile-Met ([3aS[3a alpha, 4 beta, 6a alpha]-hexahydro-2-oxo-1H-thieno[3,4-d]imidazole-5-pentanoic acid]-[7-aminoheptanoic acid]-Thr-Lys-Cys-Val-Ile-Met) (Ahe is 7-aminoheptanoic acid, Thr is threonine, Lys is lysine, Cys is cysteine, Val is valine, Ile is isoleucine and Met is methionine) (final concentration 0.2 μM), the enzyme reaction was started by addition of SF9 affinity purified rat farnesyl protein transferase. After incubation at 30° C. for 30 minutes, the reaction was terminated by diluting the reaction 2.5-fold with a stop buffer containing 1.5 M magnesium acetate, 0.2 M H3 PO4, 0.5% BSA (bovine serum albumin), and strepavidin beads (Amersham) at a concentration of 1.3 mg/mL. After allowing the plate to settle for 30 minutes at room temperature, radioactivity was quantitated on a microBeta counter (Model 1450, Wallec). The assay was also carried out without 5 mM potassium phosphate.

The subject of test [2] is ras farnesylation in ras-transformed cells. The test can be described thus: Gel shift assay. The format is cell-based. Particulars: 18-hour incubation. On the procedure: Twenty-four hours after planting 2×10^6 ras-transformed cells per treatment condition, the farnesylation inhibitor is added at varying concentrations. Following an 18-hour incubation period, cells are lysed in phosphate-buffered saline containing 1% Triton X-100, 0.5% sodium deoxycholate, and 0.1% SDS (sodium dodecyl sulfate), pH 7.4 in the presence of several protease inhibitors (PMSF (phenylmethylsulfonylfluoride), antipain, leupeptin, pepstatin A, and aprotinin all at 1 μg/mL). Ras protein is immunoprecipitated from the supernatants by the addition of 3 μg v-H-ras Ab-2 (Y13-259 antibody from Oncogene Science). After overnight immunoprecipitation, 30 μL of a 50% protein G-Sepharose slurry (Pharmacia) is added followed by 45-minute incubation. Pellets are resuspended in 2× tris-glycine loading buffer (Novex) containing 5% β-mercaptoethanol and then denatured by 5 minutes boiling prior to electrophoresis on 14% Tris-glycine SDS gels. Using Western transfer techniques, proteins are transferred to nitrocellulose membranes followed by blocking in blocking buffer. Upon overnight incubation with primary antibody (pan-ras Ab-2 from Oncogene Science), an antimouse HRP (horse radish peroxidase) conjugate secondary antibody (Amersham) is employed for detection of the ras protein. Blots are developed using ECL(enhanced chemiluminescence) techniques (Amersham).
On the technique in general: In EMSA bound probe runs differently from free probe, usually more slowly.

For test [3], the system named is H61 cells: NIH transformed 3T3 H-ras cells. The test can be described thus: Clonogenic assay (6 well plates). The format is cell-based. Conditions: H61 cells in soft agar, colonies counted after Day 13. On the procedure:
Clonogenic Assay (6 well plates)
Sometime previous to setting up an actual test:
1. Make up 1.5% Bacto Agar in Milli-Q water and autoclave.
2. Make up 500 mL 2× DMEM-HG without phenol red by combining the following:
1 bottle DMEM base powder (Sigma D-5030)
Adjust pH to 7.1 with HCl; filter sterilize.
1. Set up makeshift water bath (beaker of water with thermometer, on hot plate) in the hood. Keep water temperature between 37° C. to 43° C.
2. […] 1.5% Bacto Agar for approximately 2 minutes on high, or until completely melted. Then let it cool somewhat before using it. (You can keep it from resolidifying by setting the bottle on the hot plate.) […]
Bottom Layer (0.6% agar) Top Layer (0.3% agar)
20% calf serum 20% calf serum
40% Bacto Agar (1.5%) 20% Bacto Agar (1.5%)
(H61 cells: NIH transformed
Depending on the volume of each layer needed, use either 50 mL conical tubes or 200 mL turnip tubes which can be floated in the "water bath".
4. Add 1 mL of bottom layer agar/medium to each well: deliver 1 mL warm agar/medium to a well; then using the tip of the pipet, spread the agar/medium around to completely cover the bottom. Repeat with next well.
5. Allow the plates to set at room temperature for about 5 minutes until the bottom layer solidifies.
6. Label sterile Falcon 2054 (12×75 mm) tubes and add appropriate volume of drug solutions into them.
7. Aliquot 4 μL of DMSO or drug solution per 1 mL of agar/medium to appropriate tubes; then add the agar/medium/cells to each tube. Always add 1 mL more than will actually be needed. Mix up and down in the pipet (gently); then deliver 1 mL to the center of each well. The upper layer is less viscous, so it will generally spread out over the bottom layer unaided. If necessary, rotate the plane of the plate gently to spread the top layer evenly over the bottom layer.
8. Let plates set for 5 or 10 minutes at room temperature to solidify, then put into 5% CO2, 37° C. incubator.
9. On Day 13, add 0.5 mL of INT (tetrazolium 1 mg/mL in Milli-Q H2 O, filter sterilized) and return plates to incubator.

The mark [4] stands for this setting: HEPES buffer pH 7.4 with 5 mM potassium phosphate, read-out: PFT Inhibitory Activity IC50 (μM) HEPES and 5 mM K3 PO4.
Where [5] appears, read: HEPES buffer pH 7.4 without 5 mM potassium phosphate, read-out: PFT Inhibitory Activity IC50 (μM) HEPES.

One may read the IC50 as the concentration at which inhibition is half-maximal.

Read-outs that look alike come from different tables or passages of the source.

Regarding `O=C(CN(Cc1ccc(OCc2ccccc2)cc1)C(=O)[C@H](Cc1c[nH]cn1)NC(=O)OCc1ccccc1)NCC1(c2ccccc2)CC1` [Example 2], the IC50 is 0.006 µM in test [1] (setting [4]), 0.15 µM in test [1] (setting [5]) and 0.18 µM in test [3]. In addition, the “Gel Shift (μM) M.E.D. (minimal effective dose to observe inhibition of ras farnesylation)” value in test [2] amounted to 0.02 µM.
As for `CN(Cc1ccccc1)C(=O)N[C@@H](Cc1c[nH]cn1)C(=O)N(CC(=O)NCC1(c2ccccc2)CCC1)Cc1ccc(OCc2ccccc2)cc1` [Example 8, (S)-2-(3-Benzyl-3-methyl-ureido)-N-(4-benzyloxy-benzyl)-3-(1H-imidazol-4-yl)-N-{[(1-phenyl-cyclobutylmethyl)-carbamoyl]-methyl}-propionamide], the results for the IC50 in test [1] (setting [4]) and in test [1] (setting [5]) were 0.015 µM and 0.068 µM, respectively. The “Gel Shift (μM) M.E.D. (minimal effective dose to observe inhibition of ras farnesylation)” value in test [2] amounted to 0.01 µM.
In the case of `CCCN(CC(=O)NCC1(c2ccccc2)CCC1)C(=O)[C@H](Cc1cnc[nH]1)NC(=O)OCc1ccccc1` [Example 11], the IC50 is 0.33 µM in test [1] (setting [4]) and < 0.001 µM in test [1] (setting [5]). Also, the “Gel Shift (μM) M.E.D. (minimal effective dose to observe inhibition of ras farnesylation)” value in test [2] is ≤ 0.05 µM.
For the compound `COc1ccc(CN(CC(=O)NCC2(c3ccccc3)CCC2)C(=O)[C@H](Cc2c[nH]cn2)NC(=O)OCc2ccccc2)cc1` [Example 6, (S)-[1-((4-Methoxy-benzyl)-{[(1-phenyl-cyclobutyl-methyl)-carbamoyl]-methyl}-carbamoyl)-2-(1H-imidazol-4-yl)-ethyl]-carbamic Acid benzyl Ester], the IC50 in test [1] (setting [4]) was determined as 0.0029 µM; in test [1] (setting [5]), 0.26 µM; in test [3] (312 h), 0.21 µM. In addition, the “Gel Shift (μM) M.E.D. (minimal effective dose to observe inhibition of ras farnesylation)” value in test [2] was 0.002 µM.
Regarding “N-((1S)-1-(1H-4-imidazolylmethyl)-2-oxo-2-(2-oxo-2-[(1-phenylcyclobutyl)methyl]aminoethyl)[(1R)-1-phenylethyl]aminoethyl)carbamate [Example 12]”, the values for the IC50 in test [1] (setting [4]) and in test [1] (setting [5]) were 0.34 µM and 0.002 µM, respectively. In test [2], the “Gel Shift (μM) M.E.D. (minimal effective dose to observe inhibition of ras farnesylation)” value is ≤ 0.05 µM.
Consider `O=C(CN(Cc1ccc(OCc2ccccc2)cc1)C(=O)[C@H](Cc1c[nH]cn1)NC(=O)OCc1ccccc1)NCC1(c2ccccc2)CCCC1` [Example 5, (S)-[1-((4-Benzyloxy-benzyl)-{[(1-phenyl-cyclopentylmethyl)-carbamoyl]-methyl}-carbamoyl)-2-(1H-imidazol-4-yl)-ethyl]-carbamic Acid benzyl Ester], for which the IC50 turned out to be 0.018 µM in test [1] (setting [4]), 0.32 µM in test [1] (setting [5]) and 0.32 µM in test [3] (312 h). The “Gel Shift (μM) M.E.D. (minimal effective dose to observe inhibition of ras farnesylation)” value in test [2] came to 0.2 µM.
With `Cc1ccc(CN(CC(=O)NCC2(c3ccccc3)CCC2)C(=O)[C@H](Cc2c[nH]cn2)NC(=O)N(C)Cc2ccccc2)cc1` [Example 7, (S)-2-(3-Benzyl-3-methyl-ureido)-3-(1H-imidazol-4-yl)-N-(4 methyl-benyl)-N-{[(1-phenyl-cyclobutylmethy)-carbomyl]-methyl}-propionamide], the IC50 was found to be 0.003 µM in test [1] (setting [4]) and 0.014 µM in test [1] (setting [5]). In test [2], the “Gel Shift (μM) M.E.D. (minimal effective dose to observe inhibition of ras farnesylation)” value was found to be 0.01 µM.
In the same order, the values of `Cc1ccc(CN(CC(=O)NCC2(c3ccccc3)CCC2)C(=O)[C@H](Cc2c[nH]cn2)NC(=O)OCc2ccccc2)cc1` [Example 4, (S)-[1-((4-Methyl-benzyl)-{[(1-phenyl-cyclobutyl-methyl)-carbamoyl]-methyl}-carbamoyl)-2-(1H-imidazol-4-yl)-ethyl]-carbamic Acid Benzyl Ester] are 0.0054 µM, 0.26 µM and 0.01 µM.
In the same order, the values of `O=C(CN(Cc1ccc(OCc2ccccc2)cc1)C(=O)[C@H](Cc1c[nH]cn1)NC(=O)OCc1ccccc1)NCC1(c2c(Cl)cccc2Cl)CCC1` [Example 9, (S)-[1-[(4-Benzyloxy-benyl)-({[1-(2,6-dichlorophenyl)-cyclobutylmethyl]-carbamoyl}-methyl)-carbamoyl]-2-(1H-imidazol-4-yl)-ethyl]-carbamic Acid benzyl Ester] are 0.18 µM, 7 µM and > 0.2 µM.
On to `O=C(CN(Cc1ccc(OCc2ccccn2)cc1)C(=O)[C@H](Cc1c[nH]cn1)NC(=O)OCc1ccccc1)NCC1(c2ccccc2)CCC1` [Example 3], for which the IC50 stood at 0.0017 µM in test [1] (setting [4]), 0.14 µM in test [1] (setting [5]) and 0.14 µM in test [3]. Further, in test [2], the “Gel Shift (μM) M.E.D. (minimal effective dose to observe inhibition of ras farnesylation)” value was found to be 0.002 µM.
Consider `C/C=C/CN(CC(=O)NCC1(c2ccccc2)CCC1)C(=O)[C@H](Cc1cnc[nH]1)NC(=O)OCc1ccccc1` (stereo in doubt) [Example 10, [(S)-trans]-[1-(But-2-enyl-{[(1-phenyl-cyclobutylmethyl)-carbamoyl]-methyl}-carbamoyl)-2-(3H-imidazol-4-yl)-ethyl]-carbamic Acid benzyl Ester], for which the IC50 is 0.36 µM in test [1] (setting [4]) and < 0.001 µM in test [1] (setting [5]). In test [2], the “Gel Shift (μM) M.E.D. (minimal effective dose to observe inhibition of ras farnesylation)” value was ≤ 0.05 µM.
